Results published in BigSolDB 2.1.

CC[C@@H](C(=O)[C@@H](C)[C@@H](O)[C@H](C)CCc1ccc(C)c(O)c1C(=O)[O-])[C@H]1O[C@](CC)([C@H]2CC[C@](O)(CC)[C@H](C)O2)C[C@@H]1C.[Na+]
solubility (mole fraction)
Conditions | 283.15 K | 288.15 K | 293.15 K | 298.15 K | 303.15 K | 308.15 K | 313.15 K | 318.15 K | 323.15 K
in acetone | 0.0117 | 0.0119 | 0.0121 | 0.0123 | 0.0125 | 0.0127 | 0.0129 | 0.0132 | 0.0135
in ethanol | 0.00223 | 0.00246 | 0.0026 | 0.00311 | 0.00364 | 0.00419 | 0.00456 | 0.00502 | 0.00564
in ethyl acetate | 0.00531 | 0.00538 | 0.00548 | 0.00556 | 0.00566 | 0.00575 | 0.00587 | 0.00596 | 0.00602
in isopropanol | 0.00085 | 0.00095 | 0.00106 | 0.00117 | 0.00136 | 0.00161 | 0.00191 | 0.00211 | 0.00233
in methanol | 0.00259 | 0.00293 | 0.0031 | 0.00352 | 0.00391 | 0.00413 | 0.00456 | 0.00508 | 0.00577
